Results from patent US20030104473A1, “Common ligand mimics: benzimidazoles” (priority 2001, published 2003).
Where two headings read alike, the source gives them in different places.

What was measured:
[1] = target: T1, alcohol dehydrogenase (ADH) (Saccharomyces cerevisiae, UniProt P00330); experiment: ADH kinetic assay, spectrophotometric reduction of NAD+ at 340 nm; assay type: biochemical, Bakers Yeast
T1 construct: 10 μl of ADH from Bakers Yeast; host or cells: baker's yeast
T1 sequence (P00330 1-348): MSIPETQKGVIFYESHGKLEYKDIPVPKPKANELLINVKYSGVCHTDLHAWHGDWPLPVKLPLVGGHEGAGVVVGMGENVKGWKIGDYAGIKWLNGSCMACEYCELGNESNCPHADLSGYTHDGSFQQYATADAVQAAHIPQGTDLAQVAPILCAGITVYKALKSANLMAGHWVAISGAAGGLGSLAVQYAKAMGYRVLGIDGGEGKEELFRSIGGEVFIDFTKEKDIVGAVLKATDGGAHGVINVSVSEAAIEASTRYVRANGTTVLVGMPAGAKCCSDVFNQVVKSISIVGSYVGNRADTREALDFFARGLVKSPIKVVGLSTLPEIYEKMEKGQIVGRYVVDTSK
Method: For ADH analysis, the compounds were screened using a kinetic protocol that spectrophotometrically evaluates reduction of NAD+.
(§1) Stock solutions of each of the reagents were prepared in the following concentrations. Dilutions of the stock solutions were prepared prior to running the assay in the concentrations indicated below.
The ADH reaction was monitored at 340 nm prior to and after addition of the inhibitor to detect background reaction with the inhibitor. Solutions of 100 μl of the inhibitors in DMSO were prepared to provide a final DMSO concentration of 5% of the total assay volume. These solutions were incubated for 6 minutes at 25° C. in a 990 μl of a solution containing 0.1 M HEPES, pH 8.0, 80 μM NAD+, and 130 mM of ethanol. The reaction was then initiated with 10 μl of ADH from Bakers Yeast ([…]; 1:400 dilution of 1.0 mg/ml). After the enzyme was added, the solution was mixed for 20 seconds, and the reaction was run for 10 minutes. After a 50 second lag, the samples were read in a Cary spectrophotometer at 340 nm. Reading of the samples was continued until 300 seconds. Cuvette #1 contained the control reaction (no inhibitor), and cuvette #2 contained the positive control reaction in which Cibacron Blue at 15.5 μM was substituted for inhibitor to yield 50 to 60% inhibition. The substrate was kept at a level at least 10 times the Km. The final concentration of […] was about 2.5 mM.
Where only a simple read was desired, as in the case of NAD+ concentration determination, 13 μl (10 M stock) of ethanol was used to drive the reaction, and 10 μl of pure enzyme (1 mg/ml) was used. NAD+was soluble at 2 mM, which allowed the concentration determination step to be skipped. In this situation, the procedure was as follows. All of the ingredients except for the enzyme were mixed together. The solution was mixed well and the absorbance at 340 nm read. The enzyme was added and read again at OD 340 after the absorbance stopped changing, generally 10 to 15 minutes after the enzyme was added.

[2] = target: 1-deoxy-D-xylulose-5-phosphate reductase (DOXPR) (Escherichia coli, UniProt P45568); experiment: DOXPR kinetic assay, spectrophotometric oxidation of NADPH at 340 nm; assay type: biochemical
1-deoxy-D-xylulose-5-phosphate reductase (DOXPR), sequence (P45568 whole entry): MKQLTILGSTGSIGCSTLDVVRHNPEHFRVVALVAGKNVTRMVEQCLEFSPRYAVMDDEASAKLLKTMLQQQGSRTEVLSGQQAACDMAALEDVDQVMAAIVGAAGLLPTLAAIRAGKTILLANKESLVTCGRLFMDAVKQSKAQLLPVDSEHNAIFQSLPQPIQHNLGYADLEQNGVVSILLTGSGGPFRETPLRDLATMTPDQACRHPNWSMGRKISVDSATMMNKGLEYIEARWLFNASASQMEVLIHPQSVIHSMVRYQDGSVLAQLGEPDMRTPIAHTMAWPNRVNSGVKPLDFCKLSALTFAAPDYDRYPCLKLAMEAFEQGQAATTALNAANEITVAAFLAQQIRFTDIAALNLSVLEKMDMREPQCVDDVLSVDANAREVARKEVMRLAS
Method: For DOXPR analysis, the compounds were screened using a kinetic protocol that spectrophotometrically evaluates oxidation of NADPH.
Stock solutions of each of the reagents were prepared in the following concentrations. Dilutions of the stock solutions were prepared prior to running the assay in the concentrations indicated below. DOXPR was diluted in 10 mM HEPES at a pH of 7.4.
The DOXPR reaction was monitored at 340 nm prior to and after addition of the inhibitor to detect background reaction with the inhibitor. Solutions of the inhibitors in DMSO were prepared to provide a final DMSO concentration of 5% of the total assay volume. These solutions were incubated for 6 minutes at 25° C. in a 990 μl of a solution containing 0.1 M HEPES, pH 7.4, 1 mM MnCl21.15 mM DOXP, and 8 μM NADPH. The oxidation reaction was then initiated with 10 μl of DOXP reductoisomerase (10 μg/ml). After the enzyme was added, the solution was mixed for 20 seconds, and the reaction was run for 10 minutes. After a 50 second lag, the samples were read in a Cary spectrophotometer at 340 nm. Reading of the samples was continued until 300 seconds. Cuvette #1 contained the control reaction (no inhibitor), and cuvette #2 contained the positive control reaction in which Cibacron Blue at 10.32 μM was substituted for inhibitor to yield 70 to 80% inhibition. The substrate was kept at a level at least 10 times the Km.

[3] = target: glyceraldehyde-3-phosphate dehydrogenase (GAPDH) (Escherichia coli, UniProt P0A9B2); experiment: GAPDH kinetic assay, spectrophotometric reduction of NAD+ at 340 nm; assay type: biochemical, E. coli
glyceraldehyde-3-phosphate dehydrogenase (GAPDH), sequence (P0A9B2 whole entry): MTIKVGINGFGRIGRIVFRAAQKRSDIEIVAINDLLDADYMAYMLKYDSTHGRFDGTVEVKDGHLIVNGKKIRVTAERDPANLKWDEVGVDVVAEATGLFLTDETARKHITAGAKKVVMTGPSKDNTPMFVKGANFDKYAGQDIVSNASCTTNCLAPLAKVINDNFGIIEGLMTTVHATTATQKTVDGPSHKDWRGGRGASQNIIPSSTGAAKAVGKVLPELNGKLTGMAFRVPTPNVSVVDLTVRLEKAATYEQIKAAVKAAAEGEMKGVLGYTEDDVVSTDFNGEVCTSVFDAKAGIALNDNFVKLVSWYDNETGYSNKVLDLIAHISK
Method: For GAPDH analysis, the compounds were screened using a kinetic protocol that spectrophotometrically evaluates reduction of NAD+.
as §1
The GAPDH reaction was monitored at 340 nm prior to and after addition of the inhibitor to detect background reaction with the inhibitor. Solutions of 100 μl of the inhibitors incubated for 6 minutes at 25° C. in a 990 μl of a solution containing 125 mM triethanolamine, pH 7.5, 145 μM glyceraldehyde 3-phosphate (GAP), 0.211 mM NAD, 5 mM sodium arsenate, and 3 mM β-metcaptoethanol (2-BME). The reaction was then initiated with 10 gl of E. coli GAPDH (1:200 dilution of 1.0 mg/ml). After the enzyme was added, the solution was mixed for 20 seconds, and the reaction was run for 10 minutes. After a 50 second lag, the samples were read in a Cary spectrophotometer at 340 nm. Reading of the samples was continued until 300 seconds. The final concentration of DMSO in a cuvette was about 5% of the total assay volume. Cuvette #1 contained the control reaction (no inhibitor).
GAP for use in this experiment was deprotected from the diethyl acetal in the following manner. Water was boiled in recrystallizing dish. […]

SMILES | IC50 [1] | IC50 ([2]; Example 13 oxidoreductase panel (FIG. 7), read-out: IC50 for DOXPR) | IC50 ([3]; Example 13 oxidoreductase panel (FIG. 7), read-out: IC50 for GAPDH) | IC50 [2] | IC50 [3]
O=C(O)c1ccc(-c2ccc(-c3nc4ccccc4[nH]3)o2)cc1 [compound 6b, 4-[5-(1H-benzoimidazol-2-yl)-furan-2-yl] benzoic acid] | 49 µM | > 60 µM | > 60 µM | – | –
O=C(O)c1ccc(-c2ccc(-c3nc4cc([N+](=O)[O-])ccc4[nH]3)o2)cc1 [compound 6d, 4-[5-(5-nitro-1H-benzoimidazol-2-yl)-furan-2-yl]-benzoic acid] | > 150 µM | – | – | 21.4 µM | > 150 µM
